Results reported in US12515032B2, “Gelatin methacryloyl-based microneedle patches for delivery of water-insoluble drugs” (THE REGENTS OF THE UNIVERSITY OF CALIFORNIA, priority 2020, dated 2026).

What was measured:
[1] = Aqueous stability of curcumin in DPBS (absorbance at 430 nm); type: physicochemical; conditions: after 1 h at 37° C. incubation
Description: The stability of curcumin was monitored by measuring absorbance at 430 nm for both the inclusion complex and free curcumin dissolved in DPBS (DPBS diluted with ethanol). The percentage of remaining curcumin was estimated by measuring the absorbance compared to the initial absorbance over a 6 h period. […] GelMA-β-(D) and curcumin inclusion complex preparation: […] For comparison of curcumin solubility, GelMA was used as a control and the resulting solution was named as GelMA/CUR. After the equilibrium was reached, the suspension was centrifuged at 12,000 rpm for 10 min; supernatants were withdrawn and further filtered through a 0.22 μm film. The inclusion complex solutions were measured for absorbance at 430 nm to assess solubility. The prepared GelMA-β-CD/CUR solution was also used for aqueous stability study compared to free curcumin dissolved in DPBS (DPBS:ethanol as 4:1). The GelMA-β-CD/CUR solutions were freeze-dried for additional FTIR and DSC analysis.

[2] = Curcumin loading capacity / solubility in GelMA and GelMA-β-CD solution (absorbance at 430 nm); type: physicochemical
Description: Curcumin was selected as a model for water-insoluble drug or therapeutic agent 26 (FIG. 11) to test the loading efficacy of GelMA-β-CD. Aqueous drug suspension was used to compare the loading capacity relative to unmodified GelMA. […] The intermolecular interaction between CD and curcumin primarily dictated the desirable properties of water-insoluble drug 26 delivery.
GelMA-β-(D) and curcumin inclusion complex preparation: To prepare the inclusion complex, excess amount of curcumin (5 mg) was added to pre-dissolved GelMA-β-CD solution in 1 mL DPBS (20%, g/mL) and stirred at 37° C. for 30 min to form the inclusion complex solution where curcumin could be encapsulated within the cavity of CD and the resulting solution was named as GelMA-β-CD/CUR. For comparison of curcumin solubility, GelMA was used as a control and the resulting solution was named as GelMA/CUR. After the equilibrium was reached, the suspension was centrifuged at 12,000 rpm for 10 min; supernatants were withdrawn and further filtered through a 0.22 μm film. The inclusion complex solutions were measured for absorbance at 430 nm to assess solubility. The prepared GelMA-β-CD/CUR solution was also used for aqueous stability study compared to free curcumin dissolved in DPBS (DPBS:ethanol as 4:1). The GelMA-β-CD/CUR solutions were freeze-dried for additional FTIR and DSC analysis.

| Compound | Percentage of remaining curcumin [1] | Loading capacity (solubility) of curcumin [2] [µg/mL] |
| --- | --- | --- |
| COc1cc(/C=C/C(=O)CC(=O)/C=C/c2ccc(O)c(OC)c2)ccc1O [curcumin] | approximately 45% |  |
| gelatin methacryloyl [GelMA] |  | 84.8 ± 13.5 |
